Values after ≈ are worked out from the molar mass of the structure shown. Where two headings read alike, the source gives them in different places. Marks after values point to notes of the source that are not given here.
Legend:
[1] = Relative effect (RE) of HPMC brands on drug apparent solubility, shake-flask with drug/excipient physical mixtures; type: physicochemical; details: FaSSIF-V2
Protocol: (§1) Compendial media (0.1 N HCl pH 1, phosphate buffer pH 6.8) were prepared according to the method described in the European Pharmacopoeia ([43]). Fasted State Simulated Gastric Fluid (FaSSGF) and Fasted State Simulated Intestinal Fluid (FaSSIF-V2) were prepared as described by Jantratid et al. ([44]).
Drug solubility studies in the absence and presence of excipient were performed in triplicate using the shake-flask method ([45]). Drug excess amount and 2% w/w or 5% w/w of each excipient were weighed and placed in centrifuge tubes. […] The physical mixtures were vortexed for 3 min. Five millilitres of each medium was added in the tubes and the samples were placed in a shaking water bath (37 °C, 200 strokes per minute (spm)). […] Filter adsorption studies were prior performed in triplicate for each drug. […] Filtered samples were further diluted (if needed) with the corresponding medium and analysed by HPLC (Supplementary Table I). Analytical procedures for drug quantification in the samples were modifications of already published methods. Drug quantification was made based on calibration curves. […] As drug solubility can be influenced by the changes in the pH of solutions by presence of dissolved drug ([38]), the pH of samples after the completion of each experiment was measured. Drug solubility was calculated based on the sample drug concentration measured.

[2] = cited from earlier work; for Solubility (BCS classification): based on the compound's BCS classification; for Lipophilicity (log P): experimental values
[3] = Shake-flask drug solubility in absence of excipient (reference solubility); type: physicochemical; details: for solubility at 0.5 h: 37 °C, read-out: Solubility of pure drug
Protocol: as §1
Drug solubility studies in the absence and presence of excipient were performed in triplicate using the shake-flask method ([45]). Drug excess amount and 2% w/w or 5% w/w of each excipient were weighed and placed in centrifuge tubes. […] The physical mixtures were vortexed for 3 min. Five millilitres of each medium was added in the tubes and the samples were placed in a shaking water bath (37 °C, 200 strokes per minute (spm)). […] Filter adsorption studies were prior performed in triplicate for each drug. […] Filtered samples were further diluted (if needed) with the corresponding medium and analysed by HPLC (Supplementary Table I). Analytical procedures for drug quantification in the samples were modifications of already published methods. Drug quantification was made based on calibration curves. Standards were formulated from concentrated stock solutions consisting of drug dissolved in MeOH. As drug solubility can be influenced by the changes in the pH of solutions by presence of dissolved drug ([38]), the pH of samples after the completion of each experiment was measured. Drug solubility was calculated based on the sample drug concentration measured.

[4] = Theoretical % of drug ionized (Henderson-Hasselbalch equation at the pH of each medium); type: physicochemical

In the case of `NC(=O)N1c2ccccc2C=Cc2ccccc21` [CBZ, carbamazepine], the “Relative effect (RE) on drug apparent solubility” value ([1]; all the studied HPMC brands, 24 h) is listed as “approximately 60%”, the “Solubility (BCS classification)” value [2] is listed as “Low ([30])” and the “Lipophilicity (log P)” value [2] is listed as 2.45 ([29]). The pKa ([2]; ref DrugBank) was “Neutral (pKa=15)^a”, the solubility at 0.5 h ([3]; pH 1.6, fassgf or other biorelevant, thermodynamic from solid, FaSSGF, 0.5 h) was 387 µg/mL (≈ 1640 µM) and the solubility at 0.5 h ([3]; pH 6.5, thermodynamic from solid, FaSSIF-V2, 0.5 h) was 307 µg/mL (≈ 1300 µM).
For `CCC(C)n1ncn(-c2ccc(N3CCN(c4ccc(OCC5COC(Cn6cncn6)(c6ccc(Cl)cc6Cl)O5)cc4)CC3)cc2)c1=O` (centres unmarked) [ITZ, itraconazole], the “Solubility (BCS classification)” value [2] is given as “Low ([40])”, the pKa [2] is given as “Weak base (pKa=4.5) ([39])” and the “Lipophilicity (log P)” value [2] is given as 6.20 ([39]). The solubility at 24 h ([3]; aqueous buffer, thermodynamic from solid, Phosphate buffer pH 6.8, 37 °C, mean ± SD, n = 3) was under 0.015 µg/mL.
In the case of `CC(=O)Nc1ccc(O)cc1` [PRC, paracetamol], the pKa [2] is listed as “Neutral (pKa=9.38) ([28])” and the “Lipophilicity (log P)” value [2] is listed as 0.20 ([28]).
In the case of `CC(C)Cc1ccc(C(C)C(=O)O)cc1` (centres unmarked) [IBU, Ibuprofen], the “Lipophilicity (log P)” value [2] is given as 4.00 ([33]).
For `OCCN(CCO)c1nc(N2CCCCC2)c2nc(N(CCO)CCO)nc(N3CCCCC3)c2n1` [DPL, dipyridamole], the “Effect of HPMC presence on drug apparent solubility” value [1] is listed as “did not affect”, the “Solubility (BCS classification)” value [2] is listed as “Low ([38])” and the “% of drug ionized” value ([4]; FaSSIF-V2) is listed as 34%. For the same compound, the “% of drug ionized” value ([4]; phosphate buffer pH 6.8) was 20.1%.

Reference: publication PMC7028811, “Biopharmaceutical Understanding of Excipient Variability on Drug Apparent Solubility Based on Drug Physicochemical Properties: Case Study—Hypromellose (HPMC)” (The AAPS Journal, 2020)
